Measurements from patent publication US8937092B2, “Aryl or N-heteroaryl substituted methanesulfonamide derivatives as vanilloid receptor ligands” (Gruenenthal GmbH, priority 2011, dated 2015).

The molecules below were run against vanilloid receptor 1 (VR1/TRPV1 receptor) (Homo sapiens, UniProt Q8NER1) (assay: Functional FLIPR Ca2+ influx assay on vanilloid receptor 1, capsaicin (Cap) stimulus). Settings: Ki from IC50 by Cheng-Prusoff, read-out: (f) Ki (human being) [nM], Cap.
Format: cell-based
Description: Furthermore, preference may be given to compounds according to the invention that cause a 50 percent displacement of capsaicin, which is present at a concentration of 100 nM, in a FLIPR assay with CHO K1 cells which were transfected with the human VR1 gene at a concentration of less than 2,000 nM, preferably less than 1,000 nM, particularly preferably less than 300 nM, most particularly preferably less than 100 nM, even more preferably less than 75 nM, additionally preferably less than 50 nM, most preferably less than 10 nM.
In the process, the Ca^2+ influx is quantified in the FLIPR assay with the aid of a Ca^2+-sensitive dye (type Fluo-4, Molecular Probes Europe BV, Leiden, the Netherlands) in a fluorescent imaging plate reader (FLIPR, Molecular Devices, Sunnyvale, USA), as described hereinafter.
Pharmacological Methods I. Functional Testing Carried Out on the Vanilloid Receptor 1 (VRI/TRPV1 Receptor) […]
The number of cells in the suspension is set to 3×10^5 per mL and 150 μL of this suspension are in each case introduced into a recess in the cell culture plates coated as described hereinbefore. In the incubator the plates are left for two to three days at 37° C., 5% by volume of CO2 and 95% relative humidity. Subsequently, the cells are loaded with 2 μM of Fluo-4 and 0.01% by volume of Pluronic F127 (Molecular Probes Europe BV, Leiden, the Netherlands) in HBSS buffer (Hank's buffered saline solution, Gibco Invitrogen GmbH, Karlsruhe, Germany) for 30 min at 37° C., washed 3 times with HBSS buffer and after further incubation for 15 minutes at room temperature used for Ca^2+ measurement in a FLIPR assay. The Ca^2+-dependent fluorescence is in this case measured before and after the addition of substances (λex=488 nm, λem=540 nm). Quantification is carried out by measuring the highest fluorescence intensity (FC, fluorescence counts) over time.
The FLIPR protocol consists of 2 substance additions. First the compounds to be tested (10 μM) are pipetted onto the cells and the Ca^2+ influx is compared with the control (capsaicin 10 μM). This provides the result in % activation based on the Ca^2+ signal after the addition of 10 μM of capsaicin (CP). After 5 minutes' incubation, 100 nM of capsaicin are applied and the Ca^2+ influx is also determined.
Desensitising agonists and antagonists lead to suppression of the Ca^2+ influx. The % inhibition is calculated compared to the maximum achievable inhibition with 10 μM of capsazepine.
Triple analyses (n=3) are carried out and repeated in at least 3 independent experiments (N=4).
Starting from the percentage displacement caused by different concentrations of the compounds to be tested of general formula I, IC50 inhibitory concentrations which cause a 50-percent displacement of capsaicin were calculated. K, values for the test substances were obtained by conversion by means of the Cheng-Prusoff equation (Cheng, Prusoff; Biochem. Pharmacol. 22, 3099-3108, 1973).
The affinity of the compounds according to the invention for the vanilloid receptor 1 (VR1/TRPV1 receptor) was determined as described herein before (pharmacological method I).
The value after the “@” symbol indicates the concentration at which the inhibition (as a percentage) was respectively determined.

**Q.** With `Cc1cccc(-c2nc(C(F)(F)F)ccc2CNC(=O)Nc2ccc(CNS(C)(=O)=O)c(F)c2)c1` [Example 27, N-(2-fluoro-4-(3-((2-m-tolyl-6-(trifluoromethyl)pyridin-3-yl)methyl)ureido)benzyl)methanesulfonamide] as the molecule, how does the Ki read?
**A.** 10 nM

**Q.** With `Cc1ccc(-c2nc(C(F)(F)F)ccc2CNC(=O)C(C)c2ccc(CNS(C)(=O)=O)c(F)c2)cc1` (centres unmarked) [Example 29, 2-(3-fluoro-4-(methylsulfonamidomethyl)phenyl)-N-((2-p-tolyl-6-(trifluoromethyl)pyridin-3-yl)methyl)propanamide] as the molecule, how does the Ki read?
**A.** 32 nM

**Q.** For `Cc1cccc(-c2nc(C(F)(F)F)ccc2CNC(=O)C(C)c2ccc(CNS(C)(=O)=O)c(F)c2)c1C` (centres unmarked) [Example 30, N-((2-(2,3-dimethylphenyl)-6-(trifluoromethyl)pyridin-3-yl)methyl)-2-(3-fluoro-4-(methylsulfonamidomethyl)phenyl)propanamide], which Ki is on record?
**A.** 41 nM

**Q.** With `Cc1ccc(-c2nc(C(F)(F)F)ccc2CNC(=O)C(C)c2ccc(CNS(C)(=O)=O)c(F)c2)cc1C` (centres unmarked) [Example 31, N-((2-(3,4-dimethylphenyl)-6-(trifluoromethyl)pyridin-3-yl)methyl)-2-(3-fluoro-4-(methylsulfonamidomethyl)phenyl)propanamide] as the molecule, how does the Ki read?
**A.** 28 nM

**Q.** With `Cc1cc(C)cc(-c2nc(C(F)(F)F)ccc2CNC(=O)C(C)c2ccc(CNS(C)(=O)=O)c(F)c2)c1` (centres unmarked) [Example 32, N-((2-(3,5-dimethylphenyl)-6-(trifluoromethyl)pyridin-3-yl)methyl)-2-(3-fluoro-4-(methylsulfonamidomethyl)phenyl)propanamide] as the molecule, how does the Ki read?
**A.** 22 nM

**Q.** With `Cc1cccc(-c2nc(C(F)(F)F)ccc2CNC(=O)C(C)c2ccc(CNS(C)(=O)=O)c(F)c2)c1F` (centres unmarked) [Example 34, N-((2-(2-fluoro-3-methylphenyl)-6-(trifluoromethyl)pyridin-3-yl)methyl)-2-(3-fluoro-4-(methylsulfonamidomethyl)phenyl)propanamide] as the molecule, how does the Ki read?
**A.** 27 nM

**Q.** `Cc1cc(-c2nc(C(F)(F)F)ccc2CNC(=O)C(C)c2ccc(CNS(C)(=O)=O)c(F)c2)ccc1F` (centres unmarked) [Example 35, N-((2-(4-fluoro-3-methylphenyl)-6-(trifluoromethyl)pyridin-3-yl)methyl)-2-(3-fluoro-4-(methylsulfonamidomethyl)phenyl)propanamide] was tested. Which Ki did it give?
**A.** 7 nM

**Q.** How did the Ki turn out when `Cc1cc(F)cc(-c2nc(C(F)(F)F)ccc2CNC(=O)C(C)c2ccc(CNS(C)(=O)=O)c(F)c2)c1` (centres unmarked) [Example 36, 2-(3-fluoro-4-(methylsulfonamidomethyl)phenyl)-N-((2-(3-fluoro-5-methylphenyl)-6-(trifluoromethyl)pyridin-3-yl)methyl)propanamide] was run?
**A.** 63 nM

**Q.** How did the Ki turn out when `Cc1ccc(F)c(-c2nc(C(F)(F)F)ccc2CNC(=O)C(C)c2ccc(CNS(C)(=O)=O)c(F)c2)c1` (centres unmarked) [Example 37, 2-(3-fluoro-4-(methylsulfonamidomethyl)phenyl)-N-((2-(2-fluoro-5-methylphenyl)-6-(trifluoromethyl)pyridin-3-yl)methyl)propanamide] was run?
**A.** 16 nM

**Q.** `Cc1cc(-c2nc(C(F)(F)F)ccc2CNC(=O)C(C)c2ccc(CNS(C)(=O)=O)c(F)c2)ccc1C#N` (centres unmarked) [Example 39, N-((2-(4-cyano-3-methylphenyl)-6-(trifluoromethyl)pyridin-3-yl)methyl)-2-(3-fluoro-4-(methylsulfonamidomethyl)phenyl)propanamide] was tested. Which Ki did it give?
**A.** 66 nM

**Q.** `COc1c(C)cccc1-c1nc(C(F)(F)F)ccc1CNC(=O)C(C)c1ccc(CNS(C)(=O)=O)c(F)c1` (centres unmarked) [Example 42, 2-(3-fluoro-4-(methylsulfonamidomethyl)phenyl)-N-((2-(2-methoxy-3-methylphenyl)-6-(trifluoromethyl)pyridin-3-yl)methyl)propanamide] was tested. Which Ki did it give?
**A.** 65 nM

**Q.** How did the Ki turn out when `COc1ccc(-c2nc(C(F)(F)F)ccc2CNC(=O)C(C)c2ccc(CNS(C)(=O)=O)c(F)c2)cc1C` (centres unmarked) [Example 43, 2-(3-fluoro-4-(methylsulfonamidomethyl)phenyl)-N-((2-(4-methoxy-3-methylphenyl)-6-(trifluoromethyl)pyridin-3-yl)methyl)propanamide] was run?
**A.** 35 nM

**Q.** Which Ki does the source give for `COc1cc(C)cc(-c2nc(C(F)(F)F)ccc2CNC(=O)C(C)c2ccc(CNS(C)(=O)=O)c(F)c2)c1` (centres unmarked) [Example 44, 2-(3-fluoro-4-(methylsulfonamidomethyl)phenyl)-N-((2-(3-methoxy-5-methylphenyl)-6-(trifluoromethyl)pyridin-3-yl)methyl)propanamide] here?
**A.** 106 nM

**Q.** With `CCOc1ccc(-c2nc(C(F)(F)F)ccc2CNC(=O)C(C)c2ccc(CNS(C)(=O)=O)c(F)c2)cc1C` (centres unmarked) [Example 46, N-((2-(4-ethoxy-3-methylphenyl)-6-(trifluoromethyl)pyridin-3-yl)methyl)-2-(3-fluoro-4-(methylsulfonamidomethyl)phenyl)propanamide] as the molecule, how does the Ki read?
**A.** 12 nM

**Q.** How did the Ki turn out when `CCOc1cc(C)cc(-c2nc(C(F)(F)F)ccc2CNC(=O)C(C)c2ccc(CNS(C)(=O)=O)c(F)c2)c1` (centres unmarked) [Example 47, N-((2-(3-ethoxy-5-methylphenyl)-6-(trifluoromethyl)pyridin-3-yl)methyl)-2-(3-fluoro-4-(methylsulfonamidomethyl)phenyl)propanamide] was run?
**A.** 37 nM

**Q.** Which Ki does the source give for `COCc1cccc(-c2nc(C(F)(F)F)ccc2CNC(=O)C(C)c2ccc(CNS(C)(=O)=O)c(F)c2)c1` (centres unmarked) [Example 49, 2-(3-fluoro-4-(methylsulfonamidomethyl)phenyl)-N-((2-(3-(methoxymethyl)phenyl)-6-(trifluoromethyl)pyridin-3-yl)methyl)propanamide] here?
**A.** 28 nM

**Q.** How did the Ki turn out when `CC(C)c1cccc(-c2nc(C(F)(F)F)ccc2CNC(=O)C(C)c2ccc(CNS(C)(=O)=O)c(F)c2)c1` (centres unmarked) [Example 50, 2-(3-fluoro-4-(methylsulfonamidomethyl)phenyl)-N-((2-(3-isopropylphenyl)-6-(trifluoromethyl)pyridin-3-yl)methyl)propanamide] was run?
**A.** 2 nM

**Q.** For `CC(C(=O)NCc1ccc(C(F)(F)F)nc1-c1cccc(C(C)(C)C)c1)c1ccc(CNS(C)(=O)=O)c(F)c1` (centres unmarked) [Example 51, N-((2-(3-tert-butylphenyl)-6-(trifluoromethyl)pyridin-3-yl)methyl)-2-(3-fluoro-4-(methylsulfonamidomethyl)phenyl)propanamide], which Ki is on record?
**A.** 1 nM

**Q.** How did the Ki turn out when `CC(C(=O)NCc1ccc(C(F)(F)F)nc1-c1cccc(C(F)F)c1)c1ccc(CNS(C)(=O)=O)c(F)c1` (centres unmarked) [Example 52, N-((2-(3-(difluoromethyl)phenyl)-6-(trifluoromethyl)pyridin-3-yl)methyl)-2-(3-fluoro-4-(methylsulfonamidomethyl)phenyl)propanamide] was run?
**A.** 7 nM

**Q.** For `CC(C(=O)NCc1ccc(C(F)(F)F)nc1-c1cccc(N(C)C)c1)c1ccc(CNS(C)(=O)=O)c(F)c1` (centres unmarked) [Example 55, N-((2-(3-(dimethylamino)phenyl)-6-(trifluoromethyl)pyridin-3-yl)methyl)-2-(3-fluoro-4-(methylsulfonamidomethyl)phenyl)propanamide], which Ki is on record?
**A.** 42 nM

Same assay, conditions: inhibition at 1 μM, read-out: (f) inhibition (human being), Cap, @1 μM

**Q.** Which inhibition at 1 µM does the source give for `COc1ccc(C)cc1-c1nc(C(F)(F)F)ccc1CNC(=O)C(C)c1ccc(CNS(C)(=O)=O)c(F)c1` (centres unmarked) [Example 45, 2-(3-fluoro-4-(methylsulfonamidomethyl)phenyl)-N-((2-(2-methoxy-5-methylphenyl)-6-(trifluoromethyl)pyridin-3-yl)methyl)propanamide] here?
**A.** 15%

Same assay, conditions: inhibition at 5 μM, read-out: (f) inhibition (human being), Cap, @5 μM

**Q.** How did the inhibition at 5 µM turn out when `Cc1cccc(-c2nc(C(F)(F)F)ccc2CNC(=O)[C@H](C)c2ccc(CNS(C)(=O)=O)c(F)c2)c1` [Example 26, (R)-2-(3-fluoro-4-(methylsulfonamidomethyl)phenyl)-N-((2-m-tolyl-6-(trifluoromethyl)pyridin-3-yl)methyl)propanamide] was run?
**A.** 33%

**Q.** `Cc1ccc(C)c(-c2nc(C(F)(F)F)ccc2CNC(=O)C(C)c2ccc(CNS(C)(=O)=O)c(F)c2)c1` (centres unmarked) [Example 33, N-((2-(2,5-dimethylphenyl)-6-(trifluoromethyl)pyridin-3-yl)methyl)-2-(3-fluoro-4-(methylsulfonamidomethyl)phenyl)propanamide] was tested. Which inhibition at 5 µM did it give?
**A.** 35%
